Data taken from US20260168987A1, “OBLIQUE LINE SCANNER SYSTEMS AND METHODS FOR HIGH THROUGHPUT SINGLE MOLECULE TRACKING IN LIVING CELLS” (EIKON THERAPEUTICS, INC., priority 2022, published 2026).

Tested on: Halo-PCNA U2OS cells
Assay: Cell cycle phase assignment by machine learning model in Halo-PCNA U2OS cells
Format: cell-based
Conditions: 2 mM Thymidine (S-phase block) or RO-3306 (G2-M block) per FIG. 20B legend
Experimental: Time-lapse microscopy was conducted on Halo-PCNA labeled with 50 nM JFX650, to achieve near-saturating labeling, for 12 hours at 12 frames per hour (FIG. 21A). A machine learning model was then trained using both manually assigned cell stages and time-based progression resulting in both a G1, early S, mid S, late S, G2 and mitosis classifier as well as a regression prediction across the continuum of the cell cycle (FIG. 21B). The predicted cell cycle classification performed well as compared to manual annotation (FIG. 21C). Clear progression of individual cells through the cell cycle was observed when regression prediction was plotted across the time series (FIG. 21D). […] When cells in each cell phase were analyzed separately, it became apparent that the slow-moving population of PCNA was exclusively found in cell predicted to be in S-phase and that there was a marked decrease in the fast-moving population (FIG. 20E). Mean diffusion coefficient of PCNA was then measured for 4,081 individual cells to characterize heterogeneity across the cell population, which is described in large part by cell cycle (FIG. 20F).
Cell cycle as provided above can be automatically determined using an image (e.g., an image of JF549-labeled PCNA). […]

SMILES	fraction of cells assigned to cell phases
O=C1NC(=NCc2cccs2)S/C1=C\c1ccc2ncccc2c1 [RO-3306]	expected enrichment in the fraction of cells assigned to the respective cell phases
Cc1cn([C@H]2C[C@H](O)[C@@H](CO)O2)c(=O)[nH]c1=O [thymidine]	expected enrichment in the fraction of cells assigned to the respective cell phases
